Laboratory results reported in article PMC12028158, “Synthesis and In Vitro Evaluation of the Anticancer Effect of Novel Phosphonium Vindoline Derivatives” (International Journal of Molecular Sciences, 2025).
Like-named read-outs stand apart in the source and are kept apart here.

Tests used:
Assay type in all cases: cell-based
K-562 [1] = assay: NCI60 five-dose screen; settings: Homo sapiens, K562
SR = assay: NCI60 five-dose screen; settings: Homo sapiens
NCI-H322M = assay: NCI60 five-dose screen; settings: Homo sapiens
NCI-H522 [2] = assay: NCI60 five-dose screen; settings: Homo sapiens
HCT-116 = assay: NCI60 five-dose screen; settings: Homo sapiens
SF-268 = assay: NCI60 five-dose screen; settings: Homo sapiens
SF-295 = assay: NCI60 five-dose screen; settings: Homo sapiens
U251 = assay: NCI60 five-dose screen; settings: Homo sapiens
M14 = assay: NCI60 five-dose screen; settings: Homo sapiens
MDA-MB-435 = assay: NCI60 five-dose screen; settings: Homo sapiens
IGROV1 = assay: NCI60 five-dose screen; settings: Homo sapiens, IGROV-1
NCI/ADR-RES = assay: NCI60 five-dose screen; settings: Homo sapiens
SK-OV-3 [3] = assay: NCI60 five-dose screen; settings: Homo sapiens
ACHN = assay: NCI60 five-dose screen; settings: Homo sapiens
SN12C = assay: NCI60 five-dose screen; settings: Homo sapiens
TK-10 [4] = assay: NCI60 five-dose screen; settings: Homo sapiens
PC-3 = assay: NCI60 five-dose screen; settings: Homo sapiens
[5] = tested on: Non-small Cell Lung Cancer panel; assay: NCI60 five-dose screen, panel mean; settings: Homo sapiens, read-out: GI50 Mean
Colon Cancer panel = assay: NCI60 five-dose screen, panel mean; settings: Homo sapiens, read-out: GI50 Mean
Melanoma panel = assay: NCI60 five-dose screen, panel mean; settings: Homo sapiens, read-out: GI50 Mean
Prostate Cancer panel = assay: NCI60 five-dose screen, panel mean; settings: Homo sapiens, read-out: GI50 Mean
[6] = tested on: 60 human tumor cell lines (NCI60); assay: NCI60 five-dose screen, overall mean
CCRF-CEM = assay: NCI60 one-dose screen; settings: Homo sapiens, read-out: Growth percent
K-562 [7] = assay: NCI60 one-dose screen; settings: Homo sapiens
A549/ATCC = assay: NCI60 one-dose screen; settings: Homo sapiens
NCI-H522 [8] = assay: NCI60 one-dose screen; settings: Homo sapiens
HCC-2998 = assay: NCI60 one-dose screen; settings: Homo sapiens
KM12 = assay: NCI60 one-dose screen; settings: Homo sapiens
SW-620 = assay: NCI60 one-dose screen; settings: Homo sapiens
SF-539 = assay: NCI60 one-dose screen; settings: Homo sapiens
SNB-75 = assay: NCI60 one-dose screen; settings: Homo sapiens
UACC-257 = assay: NCI60 one-dose screen; settings: Homo sapiens
OVCAR-4 = assay: NCI60 one-dose screen; settings: Homo sapiens
SK-OV-3 [9] = assay: NCI60 one-dose screen; settings: Homo sapiens
TK-10 [10] = assay: NCI60 one-dose screen; settings: Homo sapiens

CC[C@]12C=CCN3CC[C@@]4(c5ccc(OC)cc5N(C)[C@H]4[C@@](O)(C(=O)OC)[C@@H]1OC(=O)CCCC[P+](c1ccc(F)cc1)(c1ccc(F)cc1)c1ccc(F)cc1)[C@@H]32 [10c]
GI50 (K-562 [1]; K-562, Leukemia, read-out: GI50): 11.3 µM | GI50 (SR; Leukemia, read-out: GI50): 14.5 µM | GI50 (NCI-H322M; Non-small Cell Lung Cancer, read-out: GI50): 50 µM | GI50 (NCI-H522 [2]; NCI-H522, Non-small Cell Lung Cancer, read-out: GI50): 5.44 µM | GI50 (HCT-116; HCT-116, Colon Cancer, read-out: GI50): 25.9 µM | GI50 (SF-268; SF-268, CNS Cancer, read-out: GI50): 17.6 µM | GI50 (SF-295; SF-295, CNS Cancer, read-out: GI50): 30.6 µM | GI50 (U251; U-251, U251, CNS Cancer, read-out: GI50): 10.7 µM | GI50 (M14; M14, Melanoma, read-out: GI50): 14.7 µM | GI50 (MDA-MB-435; MDA-MB-435, Melanoma, read-out: GI50): 12.9 µM | GI50 (IGROV1; IGROV1, Ovarian Cancer, read-out: GI50): 10.8 µM | GI50 (NCI/ADR-RES; Ovarian Cancer, read-out: GI50): > 100 µM | GI50 (SK-OV-3 [3]; SK-OV-3, Ovarian Cancer, read-out: GI50): 23.5 µM | GI50 (ACHN; Renal Cancer, read-out: GI50): > 100 µM | GI50 (SN12C; Renal Cancer, read-out: GI50): 28.6 µM | GI50 (TK-10 [4]; TK-10, Renal Cancer, read-out: GI50): 21.2 µM | GI50 (PC-3; PC-3, Prostate Cancer, read-out: GI50): 16.4 µM | GI50 ([5]; mean over Non-small Cell Lung Cancer panel): 24.3 µM | GI50 (Colon Cancer panel; mean over Colon Cancer panel): 26.9 µM | GI50 (Melanoma panel; mean over Melanoma panel): 12.5 µM | GI50 (Prostate Cancer panel; mean over Prostate Cancer panel): 25.9 µM | GI50 ([6]; mean over all 60 human cancer cell lines, read-out: GI50 Mean): 24.9 µM | activity at 10 µM (CCRF-CEM; 10 μM, one-dose): 19.9% | activity at 10 µM (K-562 [7]; K562, K-562, 10 μM, one-dose, read-out: Growth percent): 17.1% | activity at 10 µM (A549/ATCC; A549/ATCC, 10 μM, one-dose, read-out: Growth percent): 37.5% | activity at 10 µM (NCI-H522 [8]; NCI-H522, 10 μM, one-dose, read-out: Growth percent): -11.6% | activity at 10 µM (HCC-2998; HCC-2998, 10 μM, one-dose, read-out: Growth percent): 19.4% | activity at 10 µM (KM12; KM12, 10 μM, one-dose, read-out: Growth percent): 16% | activity at 10 µM (SW-620; SW-620, 10 μM, one-dose, read-out: Growth percent): 36.9% | activity at 10 µM (SF-539; SF-539, 10 μM, one-dose, read-out: Growth percent): 16% | activity at 10 µM (SNB-75; SNB-75, 10 μM, one-dose, read-out: Growth percent): -5.3% | activity at 10 µM (UACC-257; UACC-257, 10 μM, one-dose, read-out: Growth percent): -50.7% | activity at 10 µM (OVCAR-4; OVCAR-4, 10 μM, one-dose, read-out: Growth percent): 33.1% | activity at 10 µM (SK-OV-3 [9]; SK-OV-3, 10 μM, one-dose, read-out: Growth percent): 41.4% | activity at 10 µM (TK-10 [10]; TK-10, 10 μM, one-dose, read-out: Growth percent): 70.2%

CC[C@]12C=CCN3CC[C@@]4(c5ccc(OC)cc5N(C)[C@H]4[C@@](O)(C(=O)OC)[C@@H]1OC(=O)CCCC[P+](c1ccc(C)cc1)(c1ccc(C)cc1)c1ccc(C)cc1)[C@@H]32 [10a]
GI50 (K-562 [1]): 0.654 µM | GI50 (SR): 0.36 µM | GI50 (NCI-H322M): 2.67 µM | GI50 (NCI-H522 [2]; NCI-H522): 0.306 µM | GI50 (HCT-116; HCT-116): 0.452 µM | GI50 (SF-268; SF-268): 1.17 µM | GI50 (SF-295; SF-295): 1.62 µM | GI50 (U251; U-251): 0.47 µM | GI50 (M14; M14): 1.11 µM | GI50 (MDA-MB-435; MDA-MB-435): 0.678 µM | GI50 (IGROV1): 0.479 µM | GI50 (NCI/ADR-RES): 12 µM | GI50 (SK-OV-3 [3]; SK-OV-3): 1.04 µM | GI50 (ACHN): 2.54 µM | GI50 (SN12C): 0.619 µM | GI50 (TK-10 [4]; TK-10): 1.49 µM | GI50 (PC-3; PC-3): 0.45 µM | GI50 [5]: 1.07 µM | GI50 (Colon Cancer panel): 0.72 µM | GI50 (Melanoma panel): 0.92 µM | GI50 (Prostate Cancer panel): 0.8 µM | GI50 ([6]; 60 cell, read-out: Mean GI50, mean over all 60 cell lines): < 3 µM | GI50 ([6]; read-out: GI50 Mean, mean over all 60 human cancer cell lines): 1.23 µM | activity at 10 µM (CCRF-CEM): -72.4% | activity at 10 µM (K-562 [7]; K562, read-out: Growth percent): 0.8% | activity at 10 µM (A549/ATCC; A549, read-out: Growth percent): -92.2% | activity at 10 µM (NCI-H522 [8]; NCI-H522, read-out: Growth percent): -82.7% | activity at 10 µM (HCC-2998; HCC 2998, read-out: Growth percent): -85.8% | activity at 10 µM (KM12; KM12, read-out: Growth percent): -73.6% | activity at 10 µM (SW-620; SW-620, read-out: Growth percent): -88.2% | activity at 10 µM (SF-539; SF-539, read-out: Growth percent): -98.7% | activity at 10 µM (SNB-75; SNB-75, read-out: Growth percent): -87.6% | activity at 10 µM (UACC-257; UACC-257, read-out: Growth percent): -95% | activity at 10 µM (OVCAR-4; OVCAR-4, read-out: Growth percent): -68.9% | activity at 10 µM (SK-OV-3 [9]; SK-OV-3, read-out: Growth percent): -82.3% | activity at 10 µM (TK-10 [10]; TK-10, read-out: Growth percent): -91.2%
